Results reported in patent EP1946758A1, “Treatment of acute myeloid leukemia” (PIERRE FABRE MEDICAMENT, priority 2007, dated 2008).

How the values were obtained:
[1] = Stability in blood serum (hydrolysis followed by TLC); assay type: in vitro ADME; conditions: rat serum, 37°C
Experimental: The stability of triptolide succinate in blood serum was determined. In this study, a solution of triptolide succinate (the free acid of the sodium triptolide succinate) in DMSO was mixed with rat serum and incubated at 37°C. The mixture was assayed periodically by thin layer chromatography (TLC) to follow the hydrolysis of the triptolide succinate over time. […] After 15 minutes, the triptolide succinate spot was gone and a new spot corresponding to triptolide had appeared (Rf =0.60). Finally, after 45 minutes, the triptolide spot had also disappeared, and only low Rf material (blood serum components and decomposition products) remained.
Stability in Blood Serum: a solution of triptolide succinate (free acid) in DMSO can be made at a concentration of 25 mg/ml, and 0.1 ml of this solution can be mixed with 0.5 ml of rat serum. The mixture was incubated at 37°C. Aliquots of the mixture should then be taken at 1, 3, 5, 15, 45 minutes and 18 hours and analyzed by thin layer chromatography (TLC). The TLC plates can be developed in 1:5 CH2Cl2/Et2O. After development, the plates can be treated with iodine vapor and examined under a UV lamp. Triptolide and triptolide succinate can be used as reference compounds (Rf =0.60, and 0.45, respectively).
After 15 minutes, the triptolide succinate spot may be gone (Rf =0.45), and a new spot corresponding to triptolide may have appeared (Rf =0.60). After 45 minutes, the triptolide spot may also disappear, and only low Rf material (blood serum components and decomposition products) may remain.

[2] = Stability in water (D2O solution followed by proton NMR); assay type: physicochemical; conditions: room temperature; for change in the NMR spectrum: 3 mg/ml
Experimental: Sodium triptolide succinate was dissolved in D2O, and the aqueous solution was stored at room temperature.
Stability in Water: a solution of sodium triptolide succinate in D2O can be prepared at a concentration of 3 mg/ml and stored at room temperature. The solution can be analyzed by ^1H NMR at intervals of 1, 3, 5, 15, 45, 90, 180 minutes; 1, 7, 14 days; and 1, 2, 3, and 5 months.

[3] = test system: relapsed or refractory acute myeloid leukemia; assay: Exploratory dose escalation treatment of patients with relapsed or refractory leukemias; assay type: in vivo
Experimental: PG490-88 Na is a 14-succinyl triptolide sodium salt of triptolide (PG490).
In this example, 29 patients with relapsed or refractory leukemias were treated. Median age was 57 years (range : 30 - 79). Sixty two percent of patients were male. Twelve dose levels from 0.150 to 13 mg/m^2/day were tested in one patient each, with an increase by 50% for each successive cohort of patients until one dose limiting toxicity (DLT) was observed. Thereafter, dose escalation was switched to a standard design using cohorts of 3 to 6 patients per dose level, with 30% dose increments.
Among all the patients, 6 […] presented with a disease refractory to standard induction chemotherapy and the others were in 1st or 2nd relapse who had failed salvage therapy for 9 of them. […]

[4] = patients with relapsed or refractory leukemias
[5] = recommended dose of 5.7 mg/m^2/day

**Q.** With Triptolide Succinate as the compound, how does the “time for hydrolysis in serum to release free triptolide” value [1] read?
**A.** Its value is “less than an hour”.

**Q.** What about the “species detected by TLC” value ([1]; after 3 minutes) of the same compound?
**A.** Its value is “only triptolide succinate may be detected”.

**Q.** What about the “triptolide succinate spot (Rf =0.45) by TLC” value ([1]; after 15 minutes) of the same compound?
**A.** The value was “gone”.

**Q.** And the “triptolide succinate spot (Rf =0.45) by TLC” value ([1]; within the first 3 to 5 minutes)?
**A.** The value was “most of the triptolide succinate remained”.

**Q.** For `CC(C)[C@]12O[C@H]1[C@@H]1O[C@]13[C@]1(O[C@H]1C[C@H]1C4=C(CC[C@@]13C)C(=O)OC4)[C@@H]2OC(=O)CCC(=O)[O-].[Na+]` [PG490-88 Na, 14-succinyl triptolide sodium salt], which “change in the NMR spectrum” value ([2]; after 5 months) is on record?
**A.** The value was “Some decomposition”.

**Q.** What about the “change in the NMR spectrum” value ([2]; during the first three months) of the same compound?
**A.** Its value is “No appreciable change”.

**Q.** What about the “stability in aqueous solution (proton NMR spectra)” value ([2]; after five months) of the same compound?
**A.** Its value is “some decomposition”.

**Q.** What about the “stability in aqueous solution (proton NMR spectra)” value ([2]; after three months) of the same compound?
**A.** Its value is “unchanged”.

**Q.** And the “cerebellar toxicity, patients” value ([3]; 7 mg/m^2/day (one grade 2 and two grade 4))?
**A.** The value was 3 patients.

**Q.** What about the “cerebellar toxicity, patients” value ([3]; 8.5 mg/m^2/day (two grade 4)) of the same compound?
**A.** The value was 2 patients.

**Q.** What about the response ([3]; another patient, 8.5 mg/m^2/day, after 2 cycles of treatment) of the same compound?
**A.** The response was “CRp: complete remission without full platelets recovery”.

**Q.** And the “cerebellar toxicity, patients” value ([3]; doses > 5.7 mg/m^2/day)?
**A.** Its value is 5 patients.

**Q.** What about the “overall response on relapsed or refractory acute myeloid leukemia” value ([3]; exploratory dose escalation experiments) of the same compound?
**A.** Its value is “very good response”.

**Q.** What about the response ([3]; one patient, 5.7 mg/m^2/day, day 15 of the treatment, one cycle) of the same compound?
**A.** Its response is “complete remission (CR) with pancytopenia”.

**Q.** And the haematological toxicity ([3]; patient with CRp, 8.5 mg/m^2/day, after cycle 2)?
**A.** Its haematological toxicity is “no haematological toxicity”.

**Q.** What about the haematological toxicity ([3]; patient with CRp, 8.5 mg/m^2/day, after the first cycle) of the same compound?
**A.** The haematological toxicity was “grade 4 aplasia lasting 20 days”.

**Q.** And the “maximum tolerated dose (MTD)” value [3, 4]?
**A.** The value was 7 mg/m^2/day.

**Q.** And the “recommended dose for this regimen” value [3, 4]?
**A.** Its value is 5.7 mg/m^2/day.

**Q.** And the “grade 3 leucopenia (related adverse event), patients” value [3, 5]?
**A.** Its value is 1 patient.

**Q.** What about the “other related adverse events” value [3, 5] of the same compound?
**A.** The value was “mild diarrhoea, nausea and vomiting”.

**Q.** What about the haematological toxicity ([3]; third patient (complete remission), 8.5 mg/m^2/day, after the first cycle) of the same compound?
**A.** Its haematological toxicity is “moderate leucopenia (grade 1 lasting 2 days)”.

**Q.** What about the haematological toxicity ([3]; third patient (complete remission), 8.5 mg/m^2/day, during the second cycle) of the same compound?
**A.** Its haematological toxicity is “no haematotoxicity”.

**Q.** What about the response ([3]; third patient, 8.5 mg/m^2/day, after 2 cycles of treatment) of the same compound?
**A.** The response was “complete remission”.
